Molecules are shown by their SMILES.

T1 sequence (Q92633 whole entry): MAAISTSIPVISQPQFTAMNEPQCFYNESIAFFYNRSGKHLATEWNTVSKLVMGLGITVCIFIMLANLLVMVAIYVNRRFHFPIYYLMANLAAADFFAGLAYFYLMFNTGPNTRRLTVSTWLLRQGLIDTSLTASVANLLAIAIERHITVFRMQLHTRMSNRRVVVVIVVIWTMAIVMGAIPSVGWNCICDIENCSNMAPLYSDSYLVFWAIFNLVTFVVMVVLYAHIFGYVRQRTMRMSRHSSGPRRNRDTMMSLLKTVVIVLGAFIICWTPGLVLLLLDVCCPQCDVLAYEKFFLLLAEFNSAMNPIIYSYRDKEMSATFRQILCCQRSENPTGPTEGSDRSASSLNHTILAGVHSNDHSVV

This assay concerns the target T1, human EDG-2 (Homo sapiens, UniProt Q92633).
T1 construct: expressed in transfected cells; host or cells: Chinese hamster ovary (CHO) cells
The assay can be described thus: Evaluation of EDG-2 antagonistic activity by monitoring the change of intracellular calcium ion concentration. The note with it: CHO cells overexpressing human EDG-2 gene; LPA final concentration 100 nM; intracellular calcium ion concentration (Fura2-AM). It is filed as cell-based. Here is the method:
A series of the procedure is based on the basic gene manipuration technique, that is gene overexpressed cells are prepared and a conventional method was utilized. The usual method of measurement was improved for getting enhancement of measurement precision and/or measurement sensitivity of the evaluation of compounds in the present invention. A detailed method of the experiment was shown in the following clause.
Evaluation of EDG-2 antagonistic activity by monitoring the change of intracellular calcium ion concentration
Evaluation of EDG-2 antagonistic activity was carried out by using Chinese hamster ovary (CHO) cells which overexpressed human EDG-2 gene. Those cells were cultured with Ham's F12 medium (GIBCO BRL company No. 11765-047) containing 10% FBS (fetal bovine serum), penicillin/streptomycin and blasticidin (5 μg/ml). At first in order to uptake Fura2-AM (Dojindo company No. 348-05831) into the cells, cells were incubated for 60 minutes at 37 degrees in Fura2-AM (5 μM) solution [Ham's F12 medium containing 10% FBS, 20 mM HEPES buffer (pH 7.4) and 2.5 mM probenecid (Sigma company No. P-8761)]. Next, it was washed with Hanks solution containing HEPES buffer (20 mM, pH 7.4) and probenecid (2.5 mM) once, and immersed into the Hanks solution. Plates were set in fluorescent drug screening system (Hamamatsu photonics company, FDSS-2000) and intracellular calcium ion concentration was measured for 30 seconds with no stimulation and then solution of the compound of the present invention of formula (I) was added. Five minutes after adding thereto LPA (final concentration: 100 nM) was added, the increase of intracellular calcium ion concentrations before and after the addition of LPA (excitation wave length: […]; fluorescent wave length: […]) were measured every 3 seconds. The compound of the present invention represented by the formula (I) was dissolved in dimethyl sulfoxide (DMSO), and it was added so that the final concentration became 1 nM to 10 μM. 1-oleoyl (18:1)-LPA (Sigma) or 1-linolenoyl (18:3)-LPA was used as LPA. […]
For orientation: Calcium assays in cells follow changes in intracellular calcium, usually with a dye or a luminescent sensor.
Usually IC50 stands for the concentration at which inhibition is half-maximal. For `COc1cc(C(=O)N(CCCc2ccccc2)Cc2ccc(CC(=O)O)cc2)cc(OC)c1C` [Example 2(4), (4-(N-(3,5-dimethoxy-4-methylphenylcarbonyl)-N-(3-phenylpropyl)aminomethyl)phenyl)acetic acid], the IC50 was 150 nM.

Regarding `COc1cc(C(=O)C(CCCc2ccccc2)Cc2ccc(Oc3ccccc3C(=O)O)cc2)cc(OC)c1OC` (stereo not drawn) [8(1), 2-(4-(2-(3,4,5-trimethoxyphenylcarbonyl)-5-phenylpentyl)phenyloxy)benzoic acid], the IC50 was 110 nM.

As for `COc1cc(OC)cc(C(=O)N(CCCc2ccccc2)Cc2ccc(Oc3ccccc3C(=O)O)cc2)c1` [3(33), 2-(4-(N-(3,5-dimethoxyphenylcarbonyl)-N-(3-phenylpropyl)aminomethyl)phenyloxy)benzoic acid], the 50% inhibitory concentration (IC50) was determined as 95 nM.

Source of the values: patent US8124645B2, “LPA receptor antagonist” (Ono Pharmaceutical Co., Ltd., priority 2002, dated 2012).
